This note sets out measurements from the supplement of paper PMC11208160.
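Wherever recombinant UMI read abundance after kanamycin selection (control-corrected) is given: IS621 bridge recombinase in Escherichia coli cells against a fixed T5 target plasmid.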
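Wherever recombinant barcode read abundance after kanamycin selection (control-corrected) is given: IS621 recombinase and bridge RNA in Escherichia coli cells.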

A short description of the first data set: recombinant barcode read abundance after kanamycin selection (control-corrected) (log10(CPM+1)); higher = more efficient recombination; sequences stand for … in AGTGCAGAGAAAATCGGCCAGTTTTCTCTGCCTGCAGTCCGCATGCCGT…AGATTTATGCAGCGGACTGCCTTTCTCCCAAAGTGATAAACCGGACAGTATCATGGACCGGTTTTCCCGGTAATCCGTATTTGCAAGGTTGGTTTCACT; site = the 11-nt target. As for the experimental part: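 Pooled E. coli target-specificity screen for the IS621 bridge recombinase. Each library plasmid pairs an 11-nt target (CT core) with a bridge RNA whose target-binding loop (9-nt LTG + 4-nt RTG) is reprogrammed; the rest of the 177-nt WT IS621 bridge RNA scaffold is fixed. The plasmid is co-electroporated with a WT donor plasmid; recombinase is induced with 0.1 mM IPTG and recombinants are selected on kanamycin. Recombinant barcodes are sequenced, converted to CPM, averaged over two biological replicates and corrected by the unselected control CPM. Molecule = full bridge RNA written as DNA: LTG = specificity nt 1-9, RTG = reverse complement of specificity nt 8-11, in the WT scaffold.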
“AAAAGTCCTTGGGTTCTAACCTGTTGCCT (site AAAAGTCCTAG)”: the “recombinant barcode read abundance (log10)” value stood at 1.11. As to “AAAAGTCCTTGGGTTCTAACCTGTTGCCT (site AAGAGTCCTAC)”, the “recombinant barcode read abundance (log10)” value was 0.0517. Take “AAAATGCCTTGGGTTCTAACCTGTTGCCT (site AAAATGCCTAG)”: the “recombinant barcode read abundance (log10)” value came to 0.359. The same measure, in the same setting: the value for “AAAATGCCTTGGGTTCTAACCTGTTGCCT (site CAAATGTCTAG)” was 0.0967; that for “AAACGACCTTGGGTTCTAACCTGTTGCCT (site AAACGACCTAG)” was 1.59.

In the case of “AAACGACCTTGGGTTCTAACCTGTTGCCT (site CAACGACCTAG)”, the “recombinant barcode read abundance (log10)” value was 0.291. For “AAACGACCTTGGGTTCTAACCTGTTGCCT (site GAACGACCTAG)”, the “recombinant barcode read abundance (log10)” value worked out at 0.0625. Same read-out and setting: the result for “AAACGACCTTGGGTTCTAACCTGTTGCCT (site TAACGACCTAG)” reads 0.801; that for “AAAGCTACTTGGGTTCTAACCTGTTGCTA (site AAAGCTACTTA)”, 0.86; that for “AAAGCTACTTGGGTTCTAACCTGTTGCTA (site TGGTAGTCTAC)”, 0.0812.

As for “AAAGTGTCTTGGGTTCTAACCTGTTGCCT (site AAAGTGTCTAG)”, the “recombinant barcode read abundance (log10)” value came to 2.97. The same measure, in the same setting: the value for “AAAGTGTCTTGGGTTCTAACCTGTTGCCT (site AACGTGTCTAG)” was 0.373.

As for “AAAGTGTCTTGGGTTCTAACCTGTTGCCT (site AAGGTGTCTAG)”, the “recombinant barcode read abundance (log10)” value amounted to 0.489.

Consider “AAAGTGTCTTGGGTTCTAACCTGTTGCCT (site AATGTGTCTAG)”, for which the “recombinant barcode read abundance (log10)” value was 0.65. Same read-out and setting: the result for “AAATCGTCTTGGGTTCTAACCTGTTGCCT (site AAATCGTCTAG)” reads 0.817. On the same count and under the same terms, the value for “AAATCGTCTTGGGTTCTAACCTGTTGCCT (site AACACGTCTAG)” was 0.176.

As for “AACAGCTCTTGGGTTCTAACCTGTTGCCT (site AACAGCTCTAG)”, the “recombinant barcode read abundance (log10)” value stood at 1.75. Consider “AACAGCTCTTGGGTTCTAACCTGTTGCCT (site AACAGTTCTAG)”, for which the “recombinant barcode read abundance (log10)” value is 0.15.

Consider “AACAGTGCTTGGGTTCTAACCTGTTGCCT (site AACAATGCTAG)”, for which the “recombinant barcode read abundance (log10)” value came to 0.248. The same measure, in the same setting: the result for “AACAGTGCTTGGGTTCTAACCTGTTGCCT (site AACACTGCTAG)” reads 0.219; that for “AACAGTGCTTGGGTTCTAACCTGTTGCCT (site AACAGTGCTAG)”, 0.73.

As for “AACAGTGCTTGGGTTCTAACCTGTTGCCT (site AACATTGCTAG)”, the “recombinant barcode read abundance (log10)” value is 0.0547. Still for that read-out and setting: the result for “AACATGCCTTGGGTTCTAACCTGTTGCTT (site AACAAGCCTCA)” reads 0.233; that for “AACATGCCTTGGGTTCTAACCTGTTGCTT (site AACATGCCTAA)”, 0.478; that for “AACCAGCCTTGGGTTCTAACCTGTTGCCT (site AACCAGCCTAG)”, 1.33. On the same count and under the same terms, the value for “AACCAGCCTTGGGTTCTAACCTGTTGCCT (site AACCATCCTAG)” was 0.

“AACCAGTCTTGGGTTCTAACCTGTTGCGA (site AACCAGTCTTC)”: the “recombinant barcode read abundance (log10)” value was found to be 1.38. Same read-out and setting: the value for “AACCAGTCTTGGGTTCTAACCTGTTGCGA (site AACTAGTCTTA)” was 0.0824; that for “AACGCTCCTTGGGTTCTAACCTGTTGCCT (site AACGCTCCTAG)” was 0.102; that for “AACGCTCCTTGGGTTCTAACCTGTTGCCT (site ACCGCTCCTAG)” was 0.

Regarding “AACGCTCCTTGGGTTCTAACCTGTTGCCT (site AGCGCTCCTAG)”, the “recombinant barcode read abundance (log10)” value was 0.833.

Take “AACGCTCCTTGGGTTCTAACCTGTTGCCT (site ATCGCTCCTAG)”: the “recombinant barcode read abundance (log10)” value stood at 0.239. “AACGCTCCTTGGGTTCTAACCTGTTGCGG (site AACGCTCCTCC)”: the “recombinant barcode read abundance (log10)” value is 0.503.

Regarding “AACGCTCCTTGGGTTCTAACCTGTTGCGG (site CACGGTCCTCC)”, the “recombinant barcode read abundance (log10)” value turned out to be 0.0943. Take “AACTAAGCTTGGGTTCTAACCTGTTGCCT (site AACTAAGCTAG)”: the “recombinant barcode read abundance (log10)” value is 0.336. Turning to “AACTAAGCTTGGGTTCTAACCTGTTGCCT (site GGAAGCCCTTA)”, the “recombinant barcode read abundance (log10)” value amounted to 0.325. As for “AACTCAACTTGGGTTCTAACCTGTTGCCT (site AACTAAACTAG)”, the “recombinant barcode read abundance (log10)” value was 0.108. On the same count and under the same terms, the result for “AACTCAACTTGGGTTCTAACCTGTTGCCT (site AACTCAACTAG)” reads 0.288. Same read-out and setting: the value for “AACTCAACTTGGGTTCTAACCTGTTGCCT (site AACTGAACTAG)” was 0.18; that for “AACTCAACTTGGGTTCTAACCTGTTGCCT (site AACTTAACTAG)” was 0.107. Same read-out and setting: the value for “AAGAAAGCTTGGGTTCTAACCTGTTGCCT (site AAGAAAGCTAG)” was 1.82; that for “AAGAAAGCTTGGGTTCTAACCTGTTGCCT (site AAGACAGCTAG)” was 0.0854.

The next data set is described as follows: recombinant UMI read abundance after kanamycin selection (control-corrected) (log10(CPM+1)); higher = more efficient recombination; extreme values may be limits of the assay; sequences stand for … in AGTGCAGAGAAAATCGGCCAGTTTTCTCTGCCTGCAGTCCGCATGCCGTGGGACCCCTTGGGTTCTAACCTGTTGCCTAGATTTATGCAGCGGACTGCCTTTCTCCCAAAGTGATAAACCGG…AGGTTGGTTTCACT; site = the 11-nt donor. The essentials:
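Counts of recombinant UMIs were reported as log10(CPM+1). Before that, they were converted to CPM, averaged over replicates and scaled using control-derived factors. They came from PCR across the donor–target junction after Escherichia coli carrying the pair library and target plasmid was plated on IPTG (0.07 mM) plus kanamycin, or unselected, in two replicates each.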
With “TTTCGAGCATGGACCGGTTTTCCCGGTAATCCGTATTTGCA (site GTTCGAGCTTG)”, the “recombinant UMI read abundance (log10)” value came out at 0.969. Still for that read-out and setting: the value for “TTTCGAGCATGGACCGGTTTTCCCGGTAATCCGTATTTGCA (site TTTCGAGCTTG)” was 1.31. Turning to “TTTCGCACATGGACCGGTTTTCCCGGTAATCCGTATTTGCG (site TTTCGCACTCG)”, the “recombinant UMI read abundance (log10)” value is 0.00398. For the sequence “TTTCGCACATGGACCGGTTTTCCCGGTAATCCGTATTTGTC (site TTTCGCACTGA)”, the “recombinant UMI read abundance (log10)” value was 0.308. On the same count and under the same terms, the value for “TTTCGCCCATGGACCGGTTTTCCCGGTAATCCGTATTTGTG (site TTTCGCCCTCA)” was 0.0225.

“TTTGAATCATGGACCGGTTTTCCCGGTAATCCGTATTTGAC (site TTTGAATCTGT)”: the “recombinant UMI read abundance (log10)” value worked out at 0.

As to “TTTGAGACATGGACCGGTTTTCCCGGTAATCCGTATTTGGT (site ATTGAGACTAC)”, the “recombinant UMI read abundance (log10)” value worked out at 0.0113. Turning to “TTTGAGACATGGACCGGTTTTCCCGGTAATCCGTATTTGGT (site CTTGAGACTAC)”, the “recombinant UMI read abundance (log10)” value amounted to 0.0146.

Turning to “TTTGAGACATGGACCGGTTTTCCCGGTAATCCGTATTTGGT (site GTTGAGACTAC)”, the “recombinant UMI read abundance (log10)” value is 0.0113. On the same count and under the same terms, the value for “TTTGAGACATGGACCGGTTTTCCCGGTAATCCGTATTTGGT (site TTTGAGACTAC)” was 0.511; that for “TTTGCGGCATGGACCGGTTTTCCCGGTAATCCGTATTTGCC (site TTTGCGGCTAG)” was 0.0224.

For the sequence “TTTGCGGCATGGACCGGTTTTCCCGGTAATCCGTATTTGCC (site TTTGCGGCTCG)”, the “recombinant UMI read abundance (log10)” value worked out at 0.0088. On to “TTTGCGGCATGGACCGGTTTTCCCGGTAATCCGTATTTGCC (site TTTGCGGCTGG)”, for which the “recombinant UMI read abundance (log10)” value is 0. Take “TTTGCGGCATGGACCGGTTTTCCCGGTAATCCGTATTTGCC (site TTTGCGGCTTG)”: the “recombinant UMI read abundance (log10)” value came out at 0.0109. For “TTTGCGGCATGGACCGGTTTTCCCGGTAATCCGTATTTGCG (site TTTGCGGCTAG)”, the “recombinant UMI read abundance (log10)” value was 0.00371. Same read-out and setting: the value for “TTTGCGGCATGGACCGGTTTTCCCGGTAATCCGTATTTGCG (site TTTGCGGCTCG)” was 0.0191. As to “TTTGCGGCATGGACCGGTTTTCCCGGTAATCCGTATTTGCG (site TTTGCGGCTGG)”, the “recombinant UMI read abundance (log10)” value is 0.

As to “TTTGCGGCATGGACCGGTTTTCCCGGTAATCCGTATTTGCG (site TTTGCGGCTTG)”, the “recombinant UMI read abundance (log10)” value came out at 0.0091. The same measure, in the same setting: the value for “TTTGCTGCATGGACCGGTTTTCCCGGTAATCCGTATTTGCT (site TTTGCAGCTAG)” was 0; that for “TTTGCTGCATGGACCGGTTTTCCCGGTAATCCGTATTTGCT (site TTTGCCGCTAG)” was 0.0567; that for “TTTGCTGCATGGACCGGTTTTCCCGGTAATCCGTATTTGCT (site TTTGCGGCTAG)” was 0. With “TTTGCTGCATGGACCGGTTTTCCCGGTAATCCGTATTTGCT (site TTTGCTGCTAG)”, the “recombinant UMI read abundance (log10)” value was determined as 0.00917. Still for that read-out and setting: the result for “TTTGTCACATGGACCGGTTTTCCCGGTAATCCGTATTTGGA (site TTTGTCACTTC)” reads 0.187.
